Tested on: Mycobacterium tuberculosis H37Rv growth inhibition, no glycerol
Test: Mycobacterium tuberculosis H37Rv growth inhibition, no glycerol, confirmatory dose response (AID 449764);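 note: growth read after 7 days of incubation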
Details: for IC90: measured here: IC90 growth inhibition

| Structure (SMILES) | IC50 | IC90 |
| --- | --- | --- |
| CNC(CC(C)C)C(=O)NC1C(=O)NC(CC(N)=O)C(=O)NC2C(=O)NC3C(=O)NC(C(=O)NC(C(=O)O)c4cc(O)cc(O)c4-c4cc3ccc4O)C(O)c3ccc(c(Cl)c3)Oc3cc2cc(c3OC2OC(CO)C(O)C(O)C2OC2C[C@](C)(N)C(O)C(C)O2)Oc2ccc(cc2Cl)C1O (stereo not given in full) | 4.52 µM | 16.9 µM |
| Cc1cc(C)c(C(N)=O)c(SCC(=O)c2ccc(Cl)cc2)n1 | 75.3 µM | > 100 µM |
| c1ccc(-c2n[nH]c(-c3ccccn3)n2)cc1 | 20.5 µM | 27.5 µM |
| C=CCOc1ccc2c(c1)C(=NO)c1cc(OCC=C)ccc1-2 | 28 µM | > 100 µM |
| NC(=O)CSc1nnc(COc2ccc3ccccc3c2)o1 | 20.8 µM | 27.3 µM |
| O=c1c(Cl)nc2cc(Cl)ccc2n1CCNc1ncc(C(F)(F)F)cc1Cl | 2.97 µM | 3.37 µM |
| COc1ccc(C(=O)C2CCCN(C3CSCCSC3)C2)c(C)c1 (stereo not given) | 33.5 µM | 44.9 µM |
| COc1ccc(-n2c(-c3ccc(Cl)cc3)c[n+]3c2CCc2ccccc2-3)cc1 | 19.4 µM | 26.8 µM |
| Cc1cc([N+](=O)[O-])c2ccccc2[n+]1[O-] | 8.67 µM | 13.8 µM |
| COc1ccc(N(CC(=O)Nc2ccccc2C(N)=O)S(=O)(=O)c2ccc(C)c([N+](=O)[O-])c2)cc1 | 96.9 µM | > 100 µM |
| CC(C)Cc1nc2oc3c(N4CCN(CCO)CC4)ncnc3c2c2c1CCCC2 | 18.3 µM | 24.9 µM |
| COc1ccc(CN(CCC(c2ccccc2)c2ccc(OC(C)C)cc2)C(=O)CCl)cc1OC (stereo not given) | 15.8 µM | 23.5 µM |
| CN(C)c1ccc(N=Nc2ccccc2C(=O)OCC(=O)NCC2CCCCC2)cc1 | 22.1 µM | 24.9 µM |
| CC1Cc2ccccc2N1C(=S)NC(=O)c1ccc(Cl)cc1Cl (stereo not given) | 17 µM | > 100 µM |
| c1ccc2c(c1)ncn2CCCCOc1ccc2c(c1)CCC2 | 23.9 µM | 27.4 µM |
| Cc1ccc2nc(/N=C(\N)NC(=O)NC3CCCCC3)nc(C)c2c1 | 6.71 µM | 16.6 µM |
| CCOC(=O)c1nc2sc3c(c2c(=O)[nH]1)CCC(C)C3 (stereo not given) | 69.8 µM | > 100 µM |
| COC(=O)c1ccc(NC(=O)CSc2nc3ccc(N4C(=O)C5C6C=CC(C6)C5C4=O)cc3s2)cc1 (stereo not given) | 4.89 µM | 6.03 µM |
| [O-][n+]1c2ccccc2c2n1CCN1CCOC21c1ccc(Cl)cc1 (stereo not given) | 51 µM | 79.3 µM |
| Cc1cc2c(cc1C)CSC(c1c(O)ccc3ccccc13)SC2 | 61.2 µM | > 100 µM |
| Cc1cc(C)cc(-n2c(C)c3c(C)nnc(C)c3c2C)c1 | 61.3 µM | 79.7 µM |
| CCOc1ccc2nc(N/C(N)=N/C(=S)Nc3cccc(C)c3)nc(C)c2c1 | 36 µM | > 100 µM |

| Structure (SMILES) | IC50 | IC90 |
| --- | --- | --- |
| CCC(C)Nc1ccc(NC(C)CC)cc1 (stereo not given) | 2.31 µM | 2.97 µM |
| O=C(/C=C/c1cc(Br)ccc1O)c1ccco1 | 15.7 µM | 20.4 µM |
| CCN(Cc1ccccc1)c1ccc(/C=N/N=C(N)N)cc1 | 18.8 µM | 28.1 µM |
| O=C(OCC(=O)N1CCN(C(=O)c2ccco2)CC1)c1cc(-c2cccc(Br)c2)nc2ccccc12 | – | > 100 µM |
| Cc1cc(C2N=C(N)Nc3nc4ccccc4n32)c(C)n1-c1ccccc1Cl (stereo not given) | 17.3 µM | 21.4 µM |
| CC(C)CNC(=S)NC(=O)c1csc([N+](=O)[O-])c1 | 22.2 µM | 53.7 µM |
| COC(=O)CSc1ncnc2c1cnn2-c1ccc(C)cc1C | 6.02 µM | 6.82 µM |
| CN(C)[C@@H]1C(=O)C(C(N)=O)=C(O)[C@@]2(O)C(=O)C3=C(O)c4c(O)cccc4[C@@](C)(O)C3C[C@@H]12 (stereo not given in full) | 9.73 µM | 27.4 µM |
| O=C1Nc2ccc(Br)cc2C12NNc1ccccc1O2 (stereo not given) | 44.1 µM | 62.9 µM |
| CCCOC(=O)CSc1nc(N2CCOCC2)c2c(c1C#N)CC(C)(C)OC2 | 23.9 µM | 42.5 µM |
| Cc1nn2c(NCc3ccccn3)cc(C(C)C)nc2c1-c1ccccc1 | 2.85 µM | 3.23 µM |
| COc1ccc(OC)c(Nc2nc(-c3sc(C)nc3C)cs2)c1 | 70.1 µM | > 100 µM |
| Oc1ccc(N=Nc2n[nH]c(-c3ccc(Cl)cc3)n2)cc1 | 12.9 µM | 32.4 µM |
| Cc1cc(OCc2cc(C(=O)N(C)CCc3cnn(C)c3)no2)cc(C)c1Cl | 34.5 µM | 56.2 µM |
| S=C(NCc1ccc(Cl)cc1)NC12CC3CC(CC(C3)C1)C2 | 3.83 µM | 28.1 µM |
| C[n+]1c(-c2ccccc2)cc(CCCCc2cc(-c3ccccc3)[n+](C)c(-c3ccccc3)c2)cc1-c1ccccc1 | 24.8 µM | 28.3 µM |
| Cc1ccc(NC(=S)N(CCCN2CCCC2)Cc2cccn2Cc2ccc(Cl)cc2)cc1C | 75.5 µM | > 100 µM |
| COc1cccc2c1C(CO)N1C(C#N)C3CC(C(=O)O)C(C1C2)N3C (stereo not given) | 2.71 µM | 3 µM |
| O=C(/C=C/c1cn(-c2ccccc2)nc1-c1cccnc1)c1ccco1 | 39.5 µM | 54.8 µM |
| CCOC(=O)CSc1ccc(C(=O)Nc2ccc(OC)cc2)cn1 | 0.46 µM | > 100 µM |
| O=C(c1ccc([N+](=O)[O-])s1)N1CCN(c2ccc(C(F)(F)F)cn2)CC1 | 13.7 µM | 17.5 µM |
| CC1CCCC(C)N1C(=O)COC(=O)c1cc(-c2cccs2)nn1-c1ccccc1 (stereo not given) | 62.2 µM | 86.3 µM |

| Structure (SMILES) | IC50 | IC90 |
| --- | --- | --- |
| Cc1cc(NC(=O)c2cc(-c3ccncc3)nc3c(C)cccc23)no1 | 93.1 µM | > 100 µM |
| C[C@]12C=CC(=O)C=C1CC[C@@H]1C2=CC[C@]2(C)[C@@H](C(=O)CN3CCN(c4cc(N5CCCC5)nc(N5CCCC5)n4)CC3)CC[C@@H]12 | 38.5 µM | 55.9 µM |
| O=C(O)C1CC=CCC1C(=O)N1CCN(c2nc(-c3ccccc3Cl)c3cc(Br)ccc3n2)CC1 (stereo not given) | 43.2 µM | 68.8 µM |
| Cc1ccc(C)c(C2C(=O)c3ccccc3C2=O)c1 | 16.5 µM | 46.8 µM |
| O=C(Nc1cc(N2CCOCC2)ncn1)NC1(C(F)(F)F)Oc2ccc(Cl)cc2O1 (stereo not given) | 23.6 µM | 26.9 µM |
| Brc1ccc(N/N=C(/N=Nc2nn[nH]n2)c2ccccc2)cc1 | 14.4 µM | 23.3 µM |
| CCOc1cc(NC(=O)CCl)c(OCC)cc1NC(C)=O | 0.95 µM | 51.8 µM |
| O=C(C=C=Nc1ccccc1)C(=O)N=C=Cc1ccccc1 | 12.4 µM | 20.5 µM |
| COc1cccc(C2C3=C(N=c4s/c(=C\c5cccc(O)c5)c(=O)n42)c2ccccc2CC3)c1OC (stereo not given) | 22.7 µM | 25.6 µM |
| Cc1ccccc1-n1c(SCC(=O)N/N=C/c2c(C)nn(-c3ccccc3)c2C)nc2ccccc2c1=O | 4.6 µM | 6.27 µM |
| O=C(OCC#CCSc1nnc(-c2cccc3ccccc23)o1)c1cccs1 | 47.3 µM | > 100 µM |
| Cc1ccn2c(-c3csc(NCc4ccccc4)n3)c(C)nc2c1 | 45.5 µM | 51.5 µM |
| COC(=O)CN1C(c2ccc(Cl)cc2)=Nc2ccc(Cl)cc2C1c1ccccc1 (stereo not given) | 23 µM | 24.8 µM |
| CCN(Cc1ccncc1)Cc1nc(-c2ccc(C(=O)OC)cc2)no1 | 34.2 µM | 53.6 µM |
| COC(=O)[C@@H](NC(=O)O[C@@H]1C(=O)c2ccc(OC)cc2O[C@H]1c1cccc(C(F)(F)F)c1)C(C)C | – | > 100 µM |
| Cc1ccc(/C=C/S(=O)(=O)NCC(=O)OCC(=O)Nc2c(F)cccc2F)cc1 | 22.9 µM | 41.3 µM |
| Cc1ccc(C(=O)/C=C/C(=O)c2ccc(C)cc2)cc1 | 4.34 µM | 5.87 µM |
| COC(=O)c1ccc(-n2cnc3ccccc32)nc1 | 17.7 µM | 39.5 µM |
| CN1/C(=C\C(=O)COC(=O)c2ccc([N+](=O)[O-])o2)C(C)(C)c2ccccc21 | 20.9 µM | 30.3 µM |
| CCOc1ccc(-c2cc(C)[n+](CCc3ccc(OC)c(OC)c3)c(-c3ccc(OCC)cc3)c2)cc1 | 1.66 µM | 2.52 µM |
| Cc1cc(CC(C)C)n(-c2nc3ccccc3c(=O)n2OCC(N)=O)n1 | 11.2 µM | 20.6 µM |
| CN1CCN(Cc2nc3ccccc3c(=O)n2Cc2nc(-c3ccc4ccccc4c3)cs2)CC1 | 20.7 µM | 28.5 µM |

| Structure (SMILES) | IC50 | IC90 |
| --- | --- | --- |
| O=C(NCC1CCN(c2ccc(S(=O)(=O)N3CCOCC3)cc2)CC1)c1ccc(Cl)cc1 | 40.6 µM | 57 µM |
| O=C1C=C(c2ccc3[nH]ccc3c2)C[C@@H](c2ccc(Cl)cc2)C1 | 84.5 µM | > 100 µM |
| COc1cc(NC(C)CCCN)c2ncccc2c1 (stereo not given) | 9.02 µM | 14.3 µM |
| COc1ccc(SN=C2C(C)=CC(=O)C=C2C)cc1 | 22.4 µM | 24.9 µM |
| O=[N+]([O-])c1ccc(C2CC(c3ccccc3)=Nc3ccccc3S2)cc1 (stereo not given) | 6.28 µM | 7.31 µM |
| CCCCC(=O)OCC(=O)N1N=C(c2c[nH]c3ccccc23)C(O)C1c1ccc(OC)cc1 (stereo not given) | 22 µM | 25.1 µM |
| O=C(CCSc1ccccn1)c1ccccc1 | 24.6 µM | 34.1 µM |
| O=C(C/C=N\OCc1ccc([N+](=O)[O-])cc1)Nc1ccc(F)cc1F | 82.9 µM | > 100 µM |
| CCN(CC)S(=O)(=O)c1ccc(/C=C/C(=O)OCC#N)cc1 | 23.3 µM | 47.2 µM |
| C=CCc1c(C)nc(C)nc1N/N=C/c1ccccc1O | 4.61 µM | 8.85 µM |
| Cc1nc(-c2nc(-c3c(C(=O)NNC(=O)c4ccc(Cl)cc4)noc3C)cs2)cs1 | 24.7 µM | > 100 µM |
| COc1cc(CNCCc2ccccc2)cc(Cl)c1OCc1ccccc1 | 23.8 µM | 26.2 µM |
| CCCCNC(=S)Nc1ccc2cn[nH]c2c1 | 12 µM | 31.8 µM |
| O=C(Nc1nc2nc(-c3ccccc3)cc(=O)n2[nH]1)c1ccccc1 | 22.8 µM | > 100 µM |
| Cc1ccc2ccc3ccc(C)nc3c2n1 | 1.4 µM | 2.11 µM |
| CCCCS/C(N)=N/N=C/c1cc(C)ccc1O | 22.7 µM | 34.1 µM |
| C/C(=N\Nc1ccc(Cl)c(Cl)c1)c1ccc(-n2ccnc2)cc1 | 87.2 µM | 95.6 µM |
| CCOC(=O)C1(CCOc2ccccc2)CCN(Cc2cccc(-n3cccn3)c2)CC1 | 28.1 µM | 34.5 µM |
| CCOC(=O)c1ccccc1NC(=O)COc1coc(CN2CCc3ccccc32)cc1=O | 27.1 µM | 47.8 µM |
| O=S(Cc1ccc(Br)cc1)Cc1nnc(SCc2ccc(Cl)cc2)n1-c1ccccc1 (stereo not given) | 83.2 µM | > 100 µM |
